# Results published in patent US20260209214A1, “LSD1 MODULATORS” (RECURSION PHARMACEUTICALS, INC., priority 2022, published 2026).
# Biological target: Recombinant human LSD1 (Homo sapiens, UniProt O60341)
# Assay: LSD1 inhibition assay (HTRF LSD1 Histone H3K4 mono-demethylation assay, me1->me0)
# Format: biochemical
# Details: 20 nM recombinant human LSD1, 95 nM H3K4(me1) biotinylated peptide, 15 min preincubation, 60 min at 25° C., read-out: LSD1 inhibition IC50 (nM range)
# How it was run: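 HTRF demethylation (me1->me0) read-out: streptavidin-XL665 and anti-H3K4me0 cryptate added after reaction, ratio measured after 90 min dark. Reaction: 95 nM H3K4me1 biotin-peptide, 20 nM LSD1 (15-min compound pre-incubation), 60 min, 25 °C, buffer pH 8.5 plus FAD and DTT; 4-parameter logistic IC50.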
row,Structure (SMILES),IC50
1,"N#Cc1ccc(-c2cccc(CN3CC4(CCCNC4)C3)c2-c2cnco2)cc1F [Example 333, 3'-({2,6-diazaspiro[3.5]nonan-2-yl}methyl)-3-fluoro-2'-(1,3-oxazol-5-yl)-[1,1'-biphenyl]-4-carbonitrile]",10 to 25 nM
2,"N#Cc1ccc(-c2ccc(F)c(CN3C[C@]4(N)CC[C@H]3C4)c2-c2cnco2)cc1F [Example 334, 3'-{[(1S,4S)-4-amino-2-azabicyclo[2.2.1]heptan-2-yl]methyl}-3,4'-difluoro-2'-(1,3-oxazol-5-yl)-[1,1'-biphenyl]-4-carbonitrile]",10 to 25 nM
3,"N#Cc1ccc(-c2cccc(CN3C[C@]4(N)CC[C@H]3C4)c2-c2cnco2)cc1F [Example 335, 3'-{[(1S,4S)-4-amino-2-azabicyclo[2.2.1]heptan-2-yl]methyl}-3-fluoro-2'-(1,3-oxazol-5-yl)-[1,1'-biphenyl]-4-carbonitrile]",< 10 nM
4,"CNC1CCN(Cc2cccc(-c3ccc(C#N)c(F)c3)c2-c2cnco2)C1 (stereo not shown) [Example 336, 3-fluoro-3'-{[3-(methylamino)pyrrolidin-1-yl]methyl}-2'-(1,3-oxazol-5-yl)-[1,1'-biphenyl]-4-carbonitrile]",10 to 25 nM
5,"N#Cc1ccc(-c2cccc(CN3CC(F)(F)[C@@]34CCNC4)c2Cl)cc1F [Example 337, 2'-chloro-3'-{[(4S)-3,3-difluoro-1,6-diazaspiro[3.4]octan-1-yl]methyl}-3-fluoro-[1,1'-biphenyl]-4-carbonitrile]",> 1000 nM
6,"N#Cc1ccc(-c2cccc(CN3CCNCC(F)(F)C3)c2Cl)cc1F [Example 338, 2'-chloro-3'-[(6,6-difluoro-1,4-diazepan-1-yl)methyl]-3-fluoro-[1,1'-biphenyl]-4-carbonitrile]",> 1000 nM
7,"N#Cc1ccc(-c2cccc(CN3CCC4(CC3)CNC4)c2Cl)cc1F [Example 339, 2'-chloro-3'-({2,7-diazaspiro[3.5]nonan-7-yl}methyl)-3-fluoro-[1,1'-biphenyl]-4-carbonitrile]",25 to 100 nM
8,"N#Cc1ccc(-c2cccc(CN3CCC4(CNC4)C3)c2Cl)cc1F [Example 341, 2'-chloro-3'-({2,6-diazaspiro[3.4]octan-6-yl}methyl)-3-fluoro-[1,1'-biphenyl]-4-carbonitrile]",100 to 1000 nM
9,"C[C@]1(N)CCN(Cc2c(F)ccc(-c3ccc(C#N)c(F)c3)c2Cl)C1 [Example 342, 3'-{[(3S)-3-amino-3-methylpyrrolidin-1-yl]methyl}-2'-chloro-3,4'-difluoro-[1,1'-biphenyl]-4-carbonitrile]",100 to 1000 nM
10,"N#Cc1ccc(-c2cc(CN3CC4(CNCCO4)C3)ccc2N2CCCC2)cc1 [Example 343, 5'-({5-oxa-2,8-diazaspiro[3.5]nonan-2-yl}methyl)-2'-(pyrrolidin-1-yl)-[1,1'-biphenyl]-4-carbonitrile]",> 1000 nM
11,"N#Cc1ccc(-c2cc(CN3CC4(CNCCO4)C3)ccc2N2CCCC2)cc1F [Example 344, 3-fluoro-5'-({5-oxa-2,8-diazaspiro[3.5]nonan-2-yl}methyl)-2'-(pyrrolidin-1-yl)-[1,1'-biphenyl]-4-carbonitrile]",> 1000 nM
12,Cc1cc(CN2C[C@@H]3C[C@H]2CN3C2COC2)c(Cl)c(-c2ccc(C#N)c(F)c2)c1 [Example 345],> 1000 nM
13,"Cc1cc(CNCC2CCCN(C)C2)c(Cl)c(-c2ccc(C#N)c(F)c2)c1 (stereo not shown) [Example 346, 2'-chloro-3-fluoro-5'-methyl-3'-({[(1-methylpiperidin-3-yl)methyl]amino}methyl)-[1,1'-biphenyl]-4-carbonitrile]",100 to 1000 nM
14,"Cc1cc(CN2C[C@@H]3[C@@H](N)[C@@H]3C2)c(Cl)c(-c2ccc(C#N)c(F)c2)c1 [Example 347, 3'-{[(1R,5S,6R)-6-amino-3-azabicyclo[3.1.0]hexan-3-yl]methyl}-2'-chloro-3-fluoro-5'-methyl-[1,1'-biphenyl]-4-carbonitrile]",100 to 1000 nM
15,"Cc1cc(CNCC2CCCNC2)c(Cl)c(-c2ccc(C#N)c(F)c2)c1 (stereo not shown) [Example 348, 2'-chloro-3-fluoro-5'-methyl-3'-({[(piperidin-3-yl)methyl]amino}methyl)-[1,1'-biphenyl]-4-carbonitrile]",100 to 1000 nM
16,"C[C@@]1(N)CCN(Cc2cccc(-c3ccc(C#N)c(F)c3)c2C2CC2)C1 [Example 349, 3'-{[(3R)-3-amino-3-methylpyrrolidin-1-yl]methyl}-2'-cyclopropyl-3-fluoro-[1,1'-biphenyl]-4-carbonitrile]",100 to 1000 nM
